In patent publication US20200010562A1, “NEW THERAPEUTIC STRATEGIES AGAINST BLOOD CANCER” (priority 2015, published 2020):
Read-outs that look alike come from different tables or passages of the source.

What was measured:
L1210 = assay: Erythrosin B exclusion survival/mortality of L1210 in control or FMD medium; format: cell-based, murine
MEC2 = assay: Survival/mortality of MEC2 in control or FMD medium; format: cell-based, human; conditions: for effect of FMD medium on growth inhibitory effect of the drug: FMD vs control medium
MEC1 = assay: Survival/mortality of MEC1 in control or FMD medium; format: cell-based, human; conditions: for effect of FMD medium on growth inhibitory effect of the drug: FMD vs control medium
[1] = tested on: relapsed and refractory indolent lymphomas; conditions: single agent; cited from earlier work
[2] = tested on: primary embryonic mouse fibroblast (MEF); conditions: 24 h, 10 μM
[3] = In vivo CLL model, spleen weight; set-up: species or system Rag2−/−γc−/− female mice; conditions: fasted (STS) groups
Experimental: (§1) Eight-week-old Rag2−/−γ c−/− female mice were challenged intravenously (iv) via lateral tail veins with 10×10^6 MEC1 cells in 0.1 ml of saline through a 27-gauge needle, as previously described by Bertilaccio et al., (2010). Before injection, cells in log phase of growth were harvested and suspended in phosphate-buffered saline (PBS) at 100×10^6 cells/ml, and 100 μl (10×10^6 cells per mouse) was injected iv. All mice were gently warmed before intravenous injections to dilate the veins. Body weights were determined daily, and tumor progression was determined by blood smear. Animals were monitored every day for weight and general health conditions and were sacrificed when they experienced clinical signs of illness following the criteria approved and described in the protocol #742/2015—PR (see Animal Ethics Statement).
Animals were fasted for a total of 48 hours by complete deprivation of food but with free access to water. Mice were individually housed in a clean new cage to reduce cannibalism, coprophagy, and residual chow. Body weight was measured daily and immediately before and after fasting. […]
At the end of experimental procedure, peripheral blood (PB), peritoneal exudates and organs [spleen, kidneys, liver, lungs, and femoral bone marrow (BM)] were collected and analyzed either for FACS or morphological analyses. For all experimental group, spleen weight was measured (FIG. 21).

MEC1 cells [4] = assay: In vivo CLL model, FACS for human CD19/CD20/CD45 leukemic cells in tissues; set-up: species or system Rag2−/−γc−/− female mice; conditions: in combination with STS; majority of analyzed tissues
Experimental: as §1
(§2) Animals were fasted for a total of 48 hours by complete deprivation of food but with free access to water. […] Body weight was measured daily and immediately before and after fasting. […]
For FACS analysis, after blocking fragment crystallizable receptors for 10 minutes at room temperature to avoid nonspecific binding of antibodies, cells from PB, BM, peritoneal exudates, and spleen were stained with PE-Vio770 anti-human CD19 antibody. FITC anti-human CD20 and TRITC anti-human CD45 anti-human, respectively (MACS Miltenyi Biotec) and analyzed with BD FACSCANTO II flow cytometer. […]

CD20 = conditions: rituximab-resistant cell lines in vitro; cited from earlier work
MEC1 cells [5] = assay: In vivo CLL model, histopathological analysis of organs (H&E); set-up: species or system Rag2−/−γc−/− female mice; conditions: majority of organs
Experimental: as §1, §2
For morphological analysis, organs (BM, spleen, kidney, liver and lung) were formalin-fixed, paraffin-embedded, cut at 3-μm-thick sections, and stained with hematoxylin and eosin. Histologic sections were evaluated in a double-blinded fashion. […] For these mice groups, the morphology of analyzed organ was similar to the control ([…]).

[6] = alone or in combination with low glucose/FCS (FMD)

**Q.** For `COc1cc(/C=C/C(=O)CC(=O)/C=C/c2ccc(O)c(OC)c2)ccc1O` [Curcumin], which reducing survival rates (L1210; [6]) is on record?
**A.** did not show a strong efficiency

**Q.** Which killing tumor cells (L1210) does the source give for `O=P1(N(CCCl)CCCl)NCCCO1` (stereo not drawn) [Cyclophosphamide] here?
**A.** very effective in killing tumor cells

**Q.** Which results are given for `O=C(/C=C/c1cccc(S(=O)(=O)Nc2ccccc2)c1)NO` [Belinostat]?
**A.** killing tumor cells (L1210): very effective in killing tumor cells; effect of FMD medium on growth inhibitory effect of the drug (MEC2): remarkably improved; effect of FMD medium on growth inhibitory effect of the drug (MEC1): remarkably improved

**Q.** With `O=C1O[C@H]([C@@H](O)CO)C(O)=C1O` [Vitamin C, L-Ascorbic acid] as the compound, how does the reducing survival rates (L1210) read?
**A.** did not show a strong efficiency

**Q.** For Rituximab, which overall response rate [1] is on record?
**A.** 50%

**Q.** And the “effect on cell survival and death” value (MEC2)?
**A.** very effective

**Q.** And the “effect on cell survival and death” value (MEC1)?
**A.** very effective

**Q.** Which results are given for `C/C=C1\NC(=O)[C@H]2CSSCC/C=C/[C@H](CC(=O)N[C@H](C(C)C)C(=O)N2)OC(=O)[C@H](C(C)C)NC1=O` [Romidepsin]?
**A.** decrease of percentage of surviving cells [2]: about 50%; mortality rate [2]: about 12%; percentage of mortality [2]: 4%; survival rate [2]: about 77%

**Q.** For (−)Epigallocatechin Gallate [EGCG], which reducing survival rates (L1210) is on record?
**A.** did not show a strong efficiency

**Q.** For `C[C@]12C=CC(=O)C=C1CC[C@@H]1[C@@H]2C(=O)C[C@@]2(C)[C@H]1CC[C@]2(O)C(=O)CO` [Prednisone], which reducing survival rates (L1210; [6]) is on record?
**A.** did not show a strong efficiency

**Q.** And the “effect on L1210 growth” value (L1210; independently of the application of the FMD)?
**A.** no or limited effect

**Q.** What does the source list for `CC(C)C[C@H](NC(=O)[C@H](Cc1ccccc1)NC(=O)c1cnccn1)B(O)O` [Bortezomib]?
**A.** killing tumor cells (L1210): very effective in killing tumor cells; effect of FMD medium on growth inhibitory effect of the drug (MEC2): remarkably improved; spleen weight [3]: significantly lower; expression of human CD19, human CD20 and human CD45 (MEC1 cells [4]): significantly decreases; CD20 expression (CD20): increases CD20 expression; metastases and cluster of infiltration (MEC1 cells [5]; ad lib): lesser expanse; metastases and cluster of infiltration (MEC1 cells [5]; with STS): lesser expanse; effect of FMD medium on growth inhibitory effect of the drug (MEC1): remarkably improved
